Measurements: US6663897B2, “Oral itraconazole formulations and methods of making the same” (DSM IP Assets B.V., priority 2001, dated 2003)

Legend:
[1] = Stability study under accelerated conditions (ICH guidelines); assay type: physicochemical; details: three months
Procedure: The batch samples prepared under Example 1 were evaluated for stability under accelerated conditions under ICH guidelines and three months stability results are furnished in Table 4. Physical Examination Specification: Size 0 elongated hard gelatin capsule with an opaque white cap and a natural body. Capsules were substantially free from rough edges and spots and were filled with off white colored coated microcrystalline cellulose spheres.

[2] = cited from earlier work

Structure (SMILES): CCC(C)n1ncn(-c2ccc(N3CCN(c4ccc(OCC5COC(Cn6cncn6)(c6ccc(Cl)cc6Cl)O5)cc4)CC3)cc2)c1=O (racemic) [Itraconazole, (±)-cis-4-[4-[4-[4-[[2-(2,4-dichlorophenyl)-2-(1H-1,2,4-triazol-1-ylmethyl)-1,3-dioxolan-4-yl]methoxy]phenyl]-1-piperazinyl]phenyl]-2,4-dihydro-2-(1-methylpropyl)-3H-1,2,4-triazol-3-one]
- degradation of itraconazole [1]: no significant degradation
- 0.1 N Hydrochloric acid solubility ([2]; 0.1 N Hydrochloric acid): < 6 micrograms per milliliter
- water solubility ([2]; water): less than 1 microgram per milliliter
